Consider 22 compounds from article PMC8072597, “Chromeno[3,4-b]xanthones as First-in-Class AChE and Aβ Aggregation Dual-Inhibitors” (International Journal of Molecular Sciences, 2021).

Where two headings read alike, the source gives them in different places. A value given as a limit tells only on which side of the number the result lay.

Assay [1] has as its target AChE (Electrophorus electricus—eeAChE) (Electrophorus electricus, UniProt O42275). Briefly: biochemical. The class given is biochemical. On the procedure:
The synthesized compounds were evaluated for their inhibitory activity against AChE (Electrophorus electricus—eeAChE), using an adaptation of Ellman’s method. […] Initially, we performed a screening assay for the synthesized compounds to determine their enzyme inhibition at 20 μΜ as a threshold maximum concentration. […]
The inhibitory activity of the synthesized compounds towards AChE was evaluated spectrophotometrically by a 96-well microplate modified Ellman’s method. The enzyme (AChE) from Electrophorus electricus (eeAChE) stock solution was prepared as 7.4 U/mL in phosphate buffer, at pH 7. The stock solutions for the target compounds (0.1 M) were prepared in DMSO. The assay solution consisted of 0.0005 M 5,5′-dithiobis(2-nitrobenzoic acid) (DTNB), 0.013 U/mL eeAChE, and 0.0025 M acetylthiocholine iodide ATC (substrate for AChE) in 0.1 M phosphate buffer, at pH 7. The reaction mixture was prepared with 100 μL of the enzyme (eeAChE) and 50 μL of the test compound (or DMSO/water, not exceeding 0.2% of DMSO in the wells; i.e., blank samples). After 5 min of the pre-incubation period at 37 °C, 50 μL of acetylthiocholine iodide ATC and 50 μL of 5,5′-dithiobis(2-nitrobenzoic acid) (DTNB) were added to each well, thus initiating the enzymatic reaction. […] All compounds were tested at a screening concentration of 20 μM. The enzyme inhibition was calculated using the […] formula, where S and B are the enzyme activities with and without the test compound, respectively. […] All the reactions were performed in triplicate.

Assay [2] concerns the target T1, HFIP-treated Aβ1-42 peptides (Homo sapiens, UniProt P05067).
T1 construct: (HFIP)-treated Aβ1-42 peptides
Briefly: Aβ aggregation inhibition, thioflavin T (ThT)-based fluorimetric assay. As to conditions: 20 μM compound; for inhibition at 20 µM: read-out: Aβ1-42 Aggregation (% Inhib. at 20 μM). The class given is biochemical. From the text:
The formation of amyloid aggregates is crucial for the path mechanism of AD. Therefore, we also decided to check the inhibitory activity of the synthesized compounds against the Aβ aggregation. To do so, we conducted a thioflavin T (ThT)-based fluorimetric assay to evaluate their ability to inhibit β-amyloid aggregation in vitro, using 1,1,1,3,3,3,-hexafluoro-2-propanol (HFIP)-treated Aβ1-42 peptides. This assay is based on the interaction between benzothiazole dye (ThT) and cross β-sheet quaternary structure of the amyloid protein. The intensity of fluorescence is weak when the dye is free and increases when the dye binds to β-sheet structures. Cumulative evidence has been shown that aromatic/hydrophobic areas and hydrogen bonding components (such as hydroxy or methoxy groups) along flat extended structures in small-molecule inhibitors as in chromeno[3,4-b]xanthones 4a-i, are important structural features for Aβ aggregation inhibitors. […] The ThT fluorescence data was recorded over 24 h and the obtained results were then plotted against time, as illustrated in Figure 5. Phenol red was used as the reference inhibitor for in vitro Aβ aggregation.
The inhibition of Aβ1-42 aggregation was determined through a ThT-based fluorimetric assay. Initially, the Aβ-peptides (1 mg) were pre-treated with 1,1,1,3,3,3,-hexafluoro-2-propanol (HFIP), kept at room temperature overnight, aliquoted, and dried under vacuum. The Aβ-peptides stock solutions (111 μM) were then prepared in ammonium hydroxide 0.1% (NH4OH) prior to the fluorescence assay. The stock solutions of all tested compounds (400 μM) were prepared in DMSO, while the stock solution of ThT (400 μM) was prepared in distilled water (1 mL). The Aβ aggregation was monitored using a standard 96-well plates, in the Synergy multi-mode reader (BioTek) and setting the excitation and emission wavelengths at 440 and 485 nm, respectively. Samples were prepared by diluting the stock solutions in PBS pH 7.4 to a final Aβ peptides concentration of 10 μM, 20 μM of ThT and 20 μM of the test compound (maximum final DMSO content: 5% v/v), with a final volume of 100 μL. The assays were performed at room temperature. The fluorescence data was recorded over 24 h with 5 s shaking (360 cpm) prior to each reading and then plotted against the time, using a nonlinear regression. Phenol red was used as the reference compound. Each condition was performed in triplicate, and values were averaged. The estimation of the inhibitory potency (%) was carried out by comparing fluorescence values at the plateau.

Setting [3] is: Table 1, mean ± SEM, n = 3, each in triplicate, pH 7, 37 °C, read-out: eeAChE [IC50 (μM)].
Where [4] appears, read: Table 3 (dual-target summary), mean ± SEM, n = 3, read-out: eeAChE (IC50 [μM]).
Where [5] appears, read: Table 2, 10 μM Aβ, fluorescence at plateau over 24 h, <10 = no inhibition observed.

T1 sequence (P05067 672-713): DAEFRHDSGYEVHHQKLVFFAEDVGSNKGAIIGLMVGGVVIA
Sequence of AChE (Electrophorus electricus—eeAChE) (O42275 24-633): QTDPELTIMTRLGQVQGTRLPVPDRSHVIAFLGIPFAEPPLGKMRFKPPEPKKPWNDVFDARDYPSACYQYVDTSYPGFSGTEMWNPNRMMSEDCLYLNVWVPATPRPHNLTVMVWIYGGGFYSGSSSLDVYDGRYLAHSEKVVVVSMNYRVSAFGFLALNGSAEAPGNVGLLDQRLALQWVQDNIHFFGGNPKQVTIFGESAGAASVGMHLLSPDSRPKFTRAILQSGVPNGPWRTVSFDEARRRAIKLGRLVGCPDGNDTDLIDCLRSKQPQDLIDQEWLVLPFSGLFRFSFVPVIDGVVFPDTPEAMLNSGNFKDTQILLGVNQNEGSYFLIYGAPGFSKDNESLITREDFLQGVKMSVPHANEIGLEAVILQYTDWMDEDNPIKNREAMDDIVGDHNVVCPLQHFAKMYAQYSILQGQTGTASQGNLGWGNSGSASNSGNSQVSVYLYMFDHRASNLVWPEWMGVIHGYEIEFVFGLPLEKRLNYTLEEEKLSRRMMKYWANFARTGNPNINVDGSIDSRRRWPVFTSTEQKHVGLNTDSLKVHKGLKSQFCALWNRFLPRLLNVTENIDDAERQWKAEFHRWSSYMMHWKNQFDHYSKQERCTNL

As to “2,9-Dimethoxy-6H,8H-chromeno[3,4-b]xanthen-8-one [Compound 4g]”, the IC50 in assay [1] (setting [3]) is greater than 20 µM.

As to “2,11,12-trimethoxy-6H,8H-chromeno[3,4-b]xanthen-8-one [Compound 4h]”, the half-maximal inhibitory concentration (IC50) in assay [1] (setting [3]) was greater than 20 µM.

“2,11-Dimethoxy-6H,8H-chromeno[3,4-b]xanthen-8-one [Compound 4f]”: the IC50 in assay [1] (setting [3]) and in assay [1] (setting [4]) was 4.8 ± 0.1 µM in each case. The “Aβ1-42 Aggregation (% Inhib. at 20 μM)” value in assay [2] (setting [5]) and in assay [2] (Table 3 (dual-target summary)) was 52% in each case.

For “2-Methoxy-6H,8H-chromeno[3,4-b]xanthen-8-one [Compound 4e]”, the half-maximal inhibitory concentration (IC50) in assay [1] (setting [3]) and in assay [1] (setting [4]) was 6.9 ± 0.3 µM in each case. Besides, the “Aβ1-42 Aggregation (% Inhib. at 20 μM)” value in assay [2] (setting [5]) and in assay [2] (Table 3 (dual-target summary)) was 61% each time.

The compound `C#CCOc1ccccc1/C=C/c1cc(=O)c2ccccc2o1` [Compound 3a, (E)-2-[2-(prop-2-yn-1-yloxy)styryl]-4H-chromen-4-one] showed an IC50 in assay [1] of 9.5 ± 0.3 µM. Further, the inhibition at 20 µM in assay [2] (setting [5]) was less than 10%.

Take `C#CCOc1ccccc1/C=C/c1cc(=O)c2ccc(OC)cc2o1` [Compound 3b, (E)-7-methoxy-2-[2-(prop-2-yn-1-yloxy)styryl]-4H-chromen-4-one]: the IC50 in assay [1] (setting [3]) is greater than 20 µM. The inhibition at 20 µM in assay [2] (setting [5]) is less than 10%.

For the compound `C#CCOc1ccccc1/C=C/c1cc(=O)c2c(OC)cccc2o1` [Compound 3c, (E)-5-methoxy-2-[2-(prop-2-yn-1-yloxy)styryl]-4H-chromen-4-one], the half-maximal inhibitory concentration (IC50) in assay [1] (setting [3]) was greater than 20 µM.

The compound `C#CCOc1ccccc1/C=C/c1cc(=O)c2ccc(OC)c(OC)c2o1` [Compound 3d, (E)-7,8-dimethoxy-2-[2-(prop-2-yn-1-yloxy)styryl]-4H-chromen-4-one] yielded an IC50 in assay [1] of 2.4 ± 0.1 µM. In addition, the inhibition at 20 µM in assay [2] (setting [5]) was less than 10%.

As for `C#CCOc1cc(OC)ccc1/C=C/c1cc(=O)c2ccccc2o1` [Compound 3e, (E)-2-[4-methoxy-2-(prop-2-yn-1-yloxy)styryl]-4H-chromen-4-one], the IC50 in assay [1] (setting [3]) was greater than 20 µM.

For the compound `C#CCOc1cc(OC)ccc1/C=C/c1cc(=O)c2ccc(OC)cc2o1` [Compound 3f, (E)-7-methoxy-2-[4-methoxy-2-(prop-2-yn-1-yloxy)styryl]-4H-chromen-4-one], the half-maximal inhibitory concentration (IC50) in assay [1] (setting [3]) was greater than 20 µM. Besides, in assay [2] (setting [5]), the inhibition at 20 µM is 48%.

Regarding `C#CCOc1ccc(Br)cc1/C=C/c1cc(=O)c2ccccc2o1` [Compound 3i], in assay [1] (setting [3]), the IC50 is greater than 20 µM.

With `O=c1c2ccccc2oc2cc3c(cc12)COc1ccccc1-3` [Compound 4a, 6H,8H-Chromeno[3,4-b]xanthen-8-one], the midpoint of inhibition in assay [1], the IC50, lay at 2.1 ± 0.2 µM. Also, the inhibition at 20 µM in assay [2] (setting [5]) was less than 10%.

`COc1ccc2c(=O)c3cc4c(cc3oc2c1)-c1ccccc1OC4` [Compound 4b]: the IC50 in assay [1] (setting [4]) was 3.9 ± 0.1 µM. Also, the figures for the inhibition at 20 µM in assay [2] (setting [5]) and in assay [2] (Table 3 (dual-target summary)) were 70% and 66 to 70%, respectively.

Regarding `COc1cccc2oc3cc4c(cc3c(=O)c12)COc1ccccc1-4` [Compound 4c, 9-Methoxy-6H,8H-chromeno[3,4-b]xanthen-8-one], the IC50 in assay [1] (setting [3]) is greater than 20 µM.

As for `COc1ccc2c(=O)c3cc4c(cc3oc2c1OC)-c1ccccc1OC4` [Compound 4d, 11,12-Dimethoxy-6H,8H-chromeno[3,4-b]xanthen-8-one], the half-maximal inhibitory concentration (IC50) in assay [1] (setting [3]) was greater than 20 µM.

Turning to `O=c1c2ccccc2oc2cc3c(cc12)COc1ccc(Br)cc1-3` [Compound 4i, 2-bromo-6H,8H-chromeno[3,4-b]xanthen-8-one], the IC50 in assay [1] (setting [3]) was greater than 20 µM.

On to `N#CCOc1ccccc1/C=C/c1cc(=O)c2ccccc2o1` [Compound 6, (E)-2-{2-[2-(4-oxo-4H-chromen-2-yl)vinyl]phenoxy}acetonitrile], for which the IC50 in assay [1] (setting [3]) was greater than 20 µM.

Take `C#CCN(CC#C)c1ccccc1/C=C/c1cc(=O)c2ccccc2o1` [Compound 8, (E)-2-{2-[di(prop-2-yn-1-yl)amino]styryl}-4H-chromen-4-one]: in assay [1] (setting [4]), the concentration for half-maximal inhibition (IC50) was 8.7 ± 0.2 µM. For the same compound, the inhibition at 20 µM in assay [2] (setting [5]) and in assay [2] (Table 3 (dual-target summary)) was 18% in each case.

Regarding `Cc1ccc(C#CCOc2ccccc2/C=C/c2cc(=O)c3ccccc3o2)cc1` [Compound 10, (E)-2-(2-{[3-(4-methylphenyl)prop-2-yn-1-yl]oxy}styryl)-4H-chromen-4-one], in assay [1] (setting [4]), the concentration for half-maximal inhibition (IC50) worked out at 2.9 ± 0.1 µM. For the same compound, the inhibition at 20 µM in assay [2] (setting [5]) was 66%; in assay [2] (Table 3 (dual-target summary)), 66 to 70%.

Regarding `O=S1(=O)OC(c2ccc(O)cc2)(c2ccc(O)cc2)c2ccccc21` [Phenol Red, Phenol red, reference compound], the inhibition at 20 µM in assay [2] (setting [5]) stood at 20%.

“(E)-7,8-dimethoxy-2-[4-methoxy-2-(prop-2-yn-1-yloxy)styryl]chroman-4-one [Compound 3h]”: the IC50 in assay [1] (setting [3]) is greater than 20 µM.

For “(E)-8-methoxy-3-[4-methoxy-2-(prop-2-yn-1-yloxy]styryl)naphthalen-1(4H)-one [Compound 3g]”, the IC50 in assay [1] (setting [3]) is greater than 20 µM.
